Experimental data reported in US20230365570A1, “COMPOUNDS WITH GLUCOCORTICOID SPARING EFFECTS AND USES THEREOF” (The Regents of the University of California, priority 2020, published 2023).

Legend:
[1] = tested on: RA FLS; assay: Chemokine and cytokine production by TNF stimulated RA FLS; type: cell-based, human
Text: Rheumatoid arthritis fibroblast-like synoviocytes (RA FLS) were isolated from synovial tissues derived from patients with RA when they underwent joint replacement surgery or synovectomy. Patients were age ≥18 years with active RA based on the ACR 1987 Revised Criteria and consent forms were completed by the patients before surgery. The study protocol was approved by the institutional review board at TokyoMedical andDental University, Tokyo, Japan and are in accordance with the principles of the Declaration of Helsinki. RA FLS were cultured in DMEM supplemented with 10% FBS, 100 U/mL penicillin, and 100 μg/mL streptomycin in a humidified 5% CO2 incubator. All experiments used proliferating RA FLS.
(§1) THP-1 cells (10^5 cells/200 μL/well) and RA FLS (104/200 μL/well) were plated in 96 well plates and pre-treated with compound or vehicle for 1 h and then stimulated with either LPS (10 ng/ml), 1L-1ß (2 ng/ml) or TNF (2 ng/ml for THP-1 and 1 ng/ml for RA FLS). After 18 h of incubation, supernatants were collected and the levels of cytokines and chemokines in the culture supernatants were measured by ELISA according to the manufacturer's protocols (R&D systems, Minneapolis, MN).
(§2) In the pathogenesis of rheumatoid arthritis, fibroblast-like synoviocytes (RA FLS) are a primary source of inflammatory cytokines and chemokines in inflamed joints. The immunomodulatory effects and cytotoxicity of compound 1-1 on RA FLS was analyzed. […] To assess the synergistic effect of compound 1-1 with DEX in RA FLS, IL-6 and CXCL8 suppression was analyzed by co-titrating DEX and compound 1-1 in cultures with TNF stimulated RA FLS (FIG. 7A, B).

[2] = target: metabotropic glutamate receptor subtype 4 (mGluR4) (Homo sapiens, UniProt Q14833); details: previously described in another system; cited from earlier work
[3] = tested on: RA FLS; assay: Synergy of compound 1-1 with DEX in TNF stimulated RA FLS (isobologram); type: cell-based, human
Method: Drug synergy analysis was performed using lsobologram plots which were calculated according to reported procedures to compute IC50 and determine synergism. IC50 is computed from the median effect equation. Synergism analysis is carried out using the Combination index (Cl)-isobol method. Data analysis was performed using the CompuSyn software available on combisyn.com, Detailed methodology was used as described in a prior report. […] This is followed by Cl-isobol method to quantitatively assess the synergism between these inhibitor drugs. […] From the median effect equation, the estimated dose (i.e., D) necessary to produce the inhibition (i.e., Fa, Fu) obtained by the combination was calculated. […]
as §2

[4] = tested on: THP-1 cells; assay: TNF stimulated CXCL8 release by THP-1 cells; type: cell-based, human; details: TNF 2 ng/ml, overnight (FIG. 3B)
Method: as §1
The lead compounds belonging to chemotypes 1, 3, and 5 were tested for potency in suppressing chemokine and cytokine production by THP-1 cells in the presence of different inflammatory stimuli. The production of CXCL8 induced by either LPS (10 ng/ml), IL-1ß (2 ng/ml), or TNF (2 ng/ml) and TNF induced by IL-1ß (2 ng/ml) was assessed using serially diluted compounds. The compounds except 1-2 reduced the level of CXCL8 production stimulated by LPS in a dose dependent manner (FIG. 3A). However, the compounds from chemotype 5 enhanced CXCL8 release by THP-1 cells when stimulated with IL-111, or TNF (FIGS. 3B, C). […] The 1Cs0 for 1-1, 1-2 and 3-1 for IL-1ß stimulated CXCL8 release included 400, 1770, and 2020 nM, respectively, (FIG. 3C).

[5] = tested on: THP-1 cells; assay: CXCL8 production by LPS stimulated THP-1 cells (ELISA); type: cell-based, human; details: LPS 10 ng/ml, purchased compound, mean LPS CXCL8 201.1 pg/ml = 100%
Method: as §1
The 122 hit compounds underwent additional screening and were evaluated for their effects on cell viability and the ability to suppress production of an NF-κB-associated chemokine, CXCL8 (IL-8) by LPS stimulated THP-1 cells (FIG. 2D). The cells were also examined for viability after 24 h of stimulation by MTT assay (FIG. 2E).
Three of the eleven chemotypes were excluded based on the potential for them to be Michael acceptors, In many cases α,β-unsaturated carbonyls such as those found in these chemotypes can form adducts with thiols, especially under physiological conditions (pH=6-8), reducing the in vivo efficacy. Also, Michael acceptors are often […] IKKß inhibitors and thereby inhibit NF-KB response. […]

Chain of metabotropic glutamate receptor subtype 4 (mGluR4) (Q14833 33-912): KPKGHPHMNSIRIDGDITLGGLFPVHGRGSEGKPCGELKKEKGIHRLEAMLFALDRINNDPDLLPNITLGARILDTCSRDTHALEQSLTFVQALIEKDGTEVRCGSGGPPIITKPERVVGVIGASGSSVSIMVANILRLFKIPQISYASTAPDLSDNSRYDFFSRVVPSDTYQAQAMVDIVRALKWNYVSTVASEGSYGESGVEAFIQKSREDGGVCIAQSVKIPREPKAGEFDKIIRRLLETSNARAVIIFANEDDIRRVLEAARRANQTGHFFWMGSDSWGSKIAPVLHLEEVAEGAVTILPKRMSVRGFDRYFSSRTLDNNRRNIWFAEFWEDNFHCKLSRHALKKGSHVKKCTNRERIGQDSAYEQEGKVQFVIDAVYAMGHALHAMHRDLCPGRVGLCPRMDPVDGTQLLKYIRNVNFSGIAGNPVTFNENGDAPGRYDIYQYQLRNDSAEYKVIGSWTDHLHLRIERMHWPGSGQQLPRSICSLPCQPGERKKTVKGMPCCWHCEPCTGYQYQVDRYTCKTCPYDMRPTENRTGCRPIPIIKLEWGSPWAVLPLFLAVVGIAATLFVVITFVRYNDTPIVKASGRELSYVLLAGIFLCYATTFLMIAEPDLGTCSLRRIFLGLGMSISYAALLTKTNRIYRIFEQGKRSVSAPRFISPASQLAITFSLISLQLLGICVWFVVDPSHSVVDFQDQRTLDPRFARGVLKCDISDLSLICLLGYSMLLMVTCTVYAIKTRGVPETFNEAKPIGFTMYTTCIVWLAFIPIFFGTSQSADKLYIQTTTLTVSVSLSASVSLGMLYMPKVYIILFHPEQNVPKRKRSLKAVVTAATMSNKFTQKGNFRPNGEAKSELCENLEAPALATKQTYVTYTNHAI

Cc1ccc(-n2ncc3c(NC4CCCCC4)ncnc32)c(C)c1 [Compound 1-1]
CCL2 production induced by TNF ([1]; TNF 1 ng/ml overnight): dose-dependently suppressed | CXCL1 production induced by TNF ([1]; TNF 1 ng/ml overnight): dose-dependently suppressed | CXCL8 production induced by TNF ([1]; TNF 1 ng/ml overnight): dose-dependently suppressed | IL-6 production induced by TNF ([1]; TNF 1 ng/ml overnight): dose-dependently suppressed | MMP-3 production induced by TNF ([1]; TNF 1 ng/ml overnight): not | IC50 in RA FLS ([1]; comparable to that in THP-1): micromolar level | Modulation of mGluR4 [2]: positive allosteric modulator | Synergistic effect with DEX, CXCL8 release ([3]; isobologram (FIG. 7C)): synergistic effects | Synergistic effect with DEX, IL-6 release ([3]; isobologram (FIG. 7D)): synergistic effects | IC50 [4]: 900 nM | CXCL8 production. Relative to LPS (purchased) [5]: 47.1%
